Assays:
[1] = test system: Staphylococcus aureus IFO 13276; experiment: Viable Count of Staphylococcus aureus IFO 13276 in Erythritol Solution; assay type: cell-based; conditions: for The Number of Viable Cell: 50° C.
Experimental: (§1) Erythritol solutions of respective concentrations in the range of from 30 to 60% were prepared. To these were inoculated Staphylococcus aureus IFO 13276, Bacillus subtilis IFO 3134, and Escherichia coli IFO 3972 as bacteria, Candida albicans IFO 1549 and Saccharomyces cerevisiae ATCC 9763 as yeasts, Aspergillus niger IFO 6342, Aspergillus flavus IFO 6343, and Penicillium funiculosum IFO 6345 as fungi, respectively, in a population (concentration) of 10,000 cells/mL or more. After the inoculation, the solutions were stored at 30, 37, 45, 50, or 60° C., respectively, for 56 days and the number of viable cell was determined daily. The determination of the number of viable cell was performed by a method of coating 0.1 mL of appropriately diluted sample cultivation on an agar plate and cultivating and counting the number of viable cell (the number of colony) that grew after the cultivation.

[2] = test system: Bacillus subtilis IFO 3134; experiment: Viable Count of Bacillus subtilis IFO 3134 in Erythritol Solution; assay type: cell-based
Experimental: as §1

OC[C@@H](O)[C@@H](O)CO [Erythritol Solution, erythritol]
2980 cells/mL: The Number of Viable Cell ([2]; 30° C., 30% w/w, Day 3)
11500 cells/mL: The Number of Viable Cell ([2]; 37° C., 30% w/w, Day 7)
20 cells/mL: The Number of Viable Cell ([2]; 30° C., 40% w/w, Day 14)
440 cells/mL: The Number of Viable Cell ([2]; 30° C., 30% w/w, Day 7)
300 cells/mL: The Number of Viable Cell ([2]; 30° C., 40% w/w, Day 3)
prevented from growing: growth of the microbes ([1]; temperature of 50° C. or more) | growth of the microbes ([2]; temperature of 50° C. or more)
110 cells/mL: The Number of Viable Cell ([2]; 30° C., 30% w/w, Day 14) | The Number of Viable Cell ([2]; 45° C., 30% w/w, Day 7)
750 cells/mL: The Number of Viable Cell ([2]; 30° C., 30% w/w, Day 28)
1000 cells/mL: The Number of Viable Cell ([2]; 37° C., 30% w/w, Day 28)
0 cells/mL: The Number of Viable Cell ([1]; 30% w/w, Day 14) | The Number of Viable Cell ([1]; 30% w/w, Day 28) | The Number of Viable Cell ([1]; 30% w/w, Day 56) | The Number of Viable Cell ([1]; 40% w/w, Day 3) | The Number of Viable Cell ([1]; 40% w/w, Day 7) | The Number of Viable Cell ([1]; 40% w/w, Day 14) | The Number of Viable Cell ([1]; 40% w/w, Day 28) | The Number of Viable Cell ([1]; 40% w/w, Day 56) | The Number of Viable Cell ([1]; 50% w/w, Day 3) | The Number of Viable Cell ([1]; 50% w/w, Day 7) | The Number of Viable Cell ([1]; 50% w/w, Day 14) | The Number of Viable Cell ([1]; 50% w/w, Day 28) | The Number of Viable Cell ([1]; 50% w/w, Day 56) | The Number of Viable Cell ([2]; 30° C., 30% w/w, Day 56) | The Number of Viable Cell ([2]; 30° C., 40% w/w, Day 7) | The Number of Viable Cell ([2]; 30° C., 40% w/w, Day 28) | The Number of Viable Cell ([2]; 30° C., 40% w/w, Day 56) | The Number of Viable Cell ([2]; 37° C., 30% w/w, Day 56) | The Number of Viable Cell ([2]; 37° C., 40% w/w, Day 3) | The Number of Viable Cell ([2]; 37° C., 40% w/w, Day 7) | The Number of Viable Cell ([2]; 37° C., 40% w/w, Day 14) | The Number of Viable Cell ([2]; 37° C., 40% w/w, Day 28) | The Number of Viable Cell ([2]; 37° C., 40% w/w, Day 56) | The Number of Viable Cell ([2]; 45° C., 30% w/w, Day 14) | The Number of Viable Cell ([2]; 45° C., 30% w/w, Day 28) | The Number of Viable Cell ([2]; 45° C., 30% w/w, Day 56) | The Number of Viable Cell ([2]; 45° C., 50% w/w, Day 7) | The Number of Viable Cell ([2]; 45° C., 50% w/w, Day 14) | The Number of Viable Cell ([2]; 45° C., 50% w/w, Day 28) | The Number of Viable Cell ([2]; 45° C., 50% w/w, Day 56) | The Number of Viable Cell ([2]; 50° C., 30% w/w, Day 3) | The Number of Viable Cell ([2]; 50° C., 30% w/w, Day 7) | The Number of Viable Cell ([2]; 50° C., 30% w/w, Day 14) | The Number of Viable Cell ([2]; 50° C., 30% w/w, Day 28) | The Number of Viable Cell ([2]; 50° C., 30% w/w, Day 56) | The Number of Viable Cell ([2]; 50° C., 40% w/w, Day 3) | The Number of Viable Cell ([2]; 50° C., 40% w/w, Day 7) | The Number of Viable Cell ([2]; 50° C., 40% w/w, Day 14) | The Number of Viable Cell ([2]; 50° C., 40% w/w, Day 28) | The Number of Viable Cell ([2]; 50° C., 40% w/w, Day 56) | The Number of Viable Cell ([2]; 50° C., 50% w/w, Day 3) | The Number of Viable Cell ([2]; 50° C., 50% w/w, Day 7) | The Number of Viable Cell ([2]; 50° C., 50% w/w, Day 14) | The Number of Viable Cell ([2]; 50° C., 50% w/w, Day 28) | The Number of Viable Cell ([2]; 50° C., 50% w/w, Day 56)
30 cells/mL: The Number of Viable Cell ([2]; 45° C., 50% w/w, Day 3)
10000 or more cells/mL: The Number of Viable Cell ([1]; 40% w/w, Day 0) | The Number of Viable Cell ([1]; 50% w/w, Day 0) | The Number of Viable Cell ([2]; 30° C., 30% w/w, Day 0) | The Number of Viable Cell ([2]; 30° C., 40% w/w, Day 0) | The Number of Viable Cell ([2]; 37° C., 30% w/w, Day 0) | The Number of Viable Cell ([2]; 37° C., 40% w/w, Day 0) | The Number of Viable Cell ([2]; 45° C., 30% w/w, Day 0) | The Number of Viable Cell ([2]; 45° C., 50% w/w, Day 0) | The Number of Viable Cell ([2]; 50° C., 30% w/w, Day 0) | The Number of Viable Cell ([2]; 50° C., 40% w/w, Day 0) | The Number of Viable Cell ([2]; 50° C., 50% w/w, Day 0)
3 days: time after which microbes died ([1]; temperature of 50° C. or more) | time after which microbes died ([2]; temperature of 50° C. or more)
170 cells/mL: The Number of Viable Cell ([2]; 37° C., 30% w/w, Day 3)
